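Step 1: Grow cells in 96-well plates. Step 2: Expose to compound for 48 hours at 5 concentrations. Step 3: Interpolate endpoints linearly; if unreached, use highest concentration. GI50 = concentration required for 50% inhibition of growth. TGI marks complete inhibition of growth.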
Tests used:
Assay in all cases: DTP human tumour cell line panel, 48 h
HCC-2998 colon = test system: HCC-2998 colon
MALME-3M melanoma = test system: MALME-3M melanoma
NCI-H226 lung = test system: NCI-H226 lung
TK-10 renal = test system: TK-10 renal
SNB-19 CNS = test system: SNB-19 CNS
BT-549 breast = test system: BT-549 breast
M14 melanoma = test system: M14 melanoma
UACC-257 melanoma = test system: UACC-257 melanoma
OVCAR-8 ovarian = test system: OVCAR-8 ovarian
UACC-62 melanoma = test system: UACC-62 melanoma
A498 renal = test system: A498 renal
HOP-92 NSCLC = test system: HOP-92 NSCLC
HT29 colon = test system: HT29 colon
OVCAR-5 ovarian = test system: OVCAR-5 ovarian
UO-31 renal = test system: UO-31 renal
A549 NSCLC = test system: A549 NSCLC
SF-295 CNS = test system: SF-295 CNS
IGROV1 ovarian = test system: IGROV1 ovarian
HS 578T breast = test system: HS 578T breast
SN12C renal = test system: SN12C renal
OVCAR-3 ovarian = test system: OVCAR-3 ovarian
CAKI-1 renal = test system: CAKI-1 renal
DU-145 prostate = test system: DU-145 prostate
SF-268 CNS = test system: SF-268 CNS
MCF7 breast = test system: MCF7 breast
HL-60(TB) leukemia = test system: HL-60(TB) leukemia
SK-MEL-2 melanoma = test system: SK-MEL-2 melanoma
SW-620 colon = test system: SW-620 colon
RXF 393 renal = test system: RXF 393 renal
HOP-62 NSCLC = test system: HOP-62 NSCLC
MDA-MB-231 breast = test system: MDA-MB-231 breast
HCT-116 colon = test system: HCT-116 colon
SF-539 CNS = test system: SF-539 CNS
MOLT-4 leukemia = test system: MOLT-4 leukemia
MDA-MB-435 = test system: MDA-MB-435
K-562 leukemia = test system: K-562 leukemia
NCI-H460 lung = test system: NCI-H460 lung
NCI/ADR-RES ovarian = test system: NCI/ADR-RES ovarian
SR leukemia = test system: SR leukemia
LOX IMVI melanoma = test system: LOX IMVI melanoma
786-0 renal = test system: 786-0 renal
SNB-75 CNS = test system: SNB-75 CNS
RPMI-8226 leukemia = test system: RPMI-8226 leukemia
PC-3 prostate = test system: PC-3 prostate
ACHN renal = test system: ACHN renal
HCT-15 colon = test system: HCT-15 colon
CCRF-CEM leukemia = test system: CCRF-CEM leukemia
NCI-H522 lung = test system: NCI-H522 lung
SK-OV-3 ovarian = test system: SK-OV-3 ovarian
OVCAR-4 ovarian = test system: OVCAR-4 ovarian
SK-MEL-5 melanoma = test system: SK-MEL-5 melanoma
MDA-MB-468 breast = test system: MDA-MB-468 breast
SK-MEL-28 melanoma = test system: SK-MEL-28 melanoma
EKVX NSCLC = test system: EKVX NSCLC
U251 CNS = test system: U251 CNS
COLO 205 colon = test system: COLO 205 colon
KM12 colon = test system: KM12 colon
T-47D breast = test system: T-47D breast
NCI-H23 lung = test system: NCI-H23 lung

SMILES: CCOC(=O)c1sc(N/N=C(\C)c2ccc3c(c2)Nc2ccccc2S3)nc1C
- GI50 (HCC-2998 colon): 3.71 µM
- TGI (HCC-2998 colon): 12.8 µM
- GI50 (MALME-3M melanoma): 13.7 µM
- TGI (MALME-3M melanoma): 33.6 µM
- GI50 (NCI-H226 lung): 10.9 µM
- TGI (NCI-H226 lung): 29.3 µM
- GI50 (TK-10 renal): 16.6 µM
- TGI (TK-10 renal): 33.5 µM
- GI50 (SNB-19 CNS): 12.8 µM
- TGI (SNB-19 CNS): 25.6 µM
- GI50 (BT-549 breast): 18.4 µM
- TGI (BT-549 breast): 49.3 µM
- GI50 (M14 melanoma): 8.42 µM
- TGI (M14 melanoma): 61.8 µM
- GI50 (UACC-257 melanoma): 12.4 µM
- TGI (UACC-257 melanoma): 40.4 µM
- GI50 (OVCAR-8 ovarian): 12 µM
- TGI (OVCAR-8 ovarian): 39.6 µM
- GI50 (UACC-62 melanoma): 6.06 µM
- TGI (UACC-62 melanoma): 20.6 µM
- GI50 (A498 renal): 16.1 µM
- TGI (A498 renal): 45.5 µM
- GI50 (HOP-92 NSCLC): 4.9 µM
- TGI (HOP-92 NSCLC): 19.9 µM
- GI50 (HT29 colon): 11.7 µM
- TGI (HT29 colon): > 100 µM
- GI50 (OVCAR-5 ovarian): 11.6 µM
- TGI (OVCAR-5 ovarian): 67.6 µM
- GI50 (UO-31 renal): 6.67 µM
- TGI (UO-31 renal): 20.7 µM
- GI50 (A549 NSCLC): 6.4 µM
- TGI (A549 NSCLC): 38.8 µM
- GI50 (SF-295 CNS): 3.38 µM
- TGI (SF-295 CNS): 14.1 µM
- GI50 (IGROV1 ovarian): 11.3 µM
- TGI (IGROV1 ovarian): 26 µM
- GI50 (HS 578T breast): 10.5 µM
- TGI (HS 578T breast): 50.6 µM
- GI50 (SN12C renal): 11.5 µM
- TGI (SN12C renal): 28.3 µM
- GI50 (OVCAR-3 ovarian): 12.8 µM
- TGI (OVCAR-3 ovarian): 27.3 µM
- GI50 (CAKI-1 renal): 9.09 µM
- TGI (CAKI-1 renal): 22.8 µM
- GI50 (DU-145 prostate): 8.82 µM
- TGI (DU-145 prostate): 29.1 µM
- GI50 (SF-268 CNS): 13.1 µM
- TGI (SF-268 CNS): 40.4 µM
- GI50 (MCF7 breast): 3.36 µM
- TGI (MCF7 breast): 17.5 µM
- GI50 (HL-60(TB) leukemia): 4.89 µM
- TGI (HL-60(TB) leukemia): > 100 µM
- GI50 (SK-MEL-2 melanoma): 15.4 µM
- TGI (SK-MEL-2 melanoma): 44.8 µM
- GI50 (SW-620 colon): 11.9 µM
- TGI (SW-620 colon): 45.2 µM
- GI50 (RXF 393 renal): 3.2 µM
- TGI (RXF 393 renal): 13.3 µM
- GI50 (HOP-62 NSCLC): 13.3 µM
- TGI (HOP-62 NSCLC): 29.6 µM
- GI50 (MDA-MB-231 breast): 5.73 µM
- TGI (MDA-MB-231 breast): 19.1 µM
- GI50 (HCT-116 colon): 6.64 µM
- TGI (HCT-116 colon): > 100 µM
- GI50 (SF-539 CNS): 10.1 µM
- TGI (SF-539 CNS): 21.7 µM
- GI50 (MOLT-4 leukemia): 6.33 µM
- TGI (MOLT-4 leukemia): > 100 µM
- GI50 (MDA-MB-435): 10.7 µM
- TGI (MDA-MB-435): 33.6 µM
- GI50 (K-562 leukemia): 4.03 µM
- TGI (K-562 leukemia): > 100 µM
- GI50 (NCI-H460 lung): 5 µM
- TGI (NCI-H460 lung): 24.2 µM
- GI50 (NCI/ADR-RES ovarian): 8.87 µM
- TGI (NCI/ADR-RES ovarian): 22.2 µM
- GI50 (SR leukemia): > 100 µM
- TGI (SR leukemia): > 100 µM
- GI50 (LOX IMVI melanoma): 3.14 µM
- TGI (LOX IMVI melanoma): 12.4 µM
- GI50 (786-0 renal): 7.21 µM
- TGI (786-0 renal): 23.1 µM
- GI50 (SNB-75 CNS): 8.97 µM
- TGI (SNB-75 CNS): 31.2 µM
- GI50 (RPMI-8226 leukemia): 3.96 µM
- TGI (RPMI-8226 leukemia): > 100 µM
- GI50 (PC-3 prostate): 6.04 µM
- TGI (PC-3 prostate): 24 µM
- GI50 (ACHN renal): 6.1 µM
- TGI (ACHN renal): 19.1 µM
- GI50 (HCT-15 colon): 3.4 µM
- TGI (HCT-15 colon): 14.8 µM
- GI50 (CCRF-CEM leukemia): 6.52 µM
- TGI (CCRF-CEM leukemia): 94.4 µM
- GI50 (NCI-H522 lung): 10.7 µM
- TGI (NCI-H522 lung): 34.8 µM
- GI50 (SK-OV-3 ovarian): 16.9 µM
- TGI (SK-OV-3 ovarian): 39.7 µM
- GI50 (OVCAR-4 ovarian): 10.7 µM
- TGI (OVCAR-4 ovarian): 53.7 µM
- GI50 (SK-MEL-5 melanoma): 7.62 µM
- TGI (SK-MEL-5 melanoma): 27.2 µM
- GI50 (MDA-MB-468 breast): 3.45 µM
- TGI (MDA-MB-468 breast): 15.1 µM
- GI50 (SK-MEL-28 melanoma): 11.1 µM
- TGI (SK-MEL-28 melanoma): 26.1 µM
- GI50 (EKVX NSCLC): 5.82 µM
- TGI (EKVX NSCLC): 22.8 µM
- GI50 (U251 CNS): 14.1 µM
- TGI (U251 CNS): 54 µM
- GI50 (COLO 205 colon): 9.42 µM
- TGI (COLO 205 colon): 32.2 µM
- GI50 (KM12 colon): 3.45 µM
- TGI (KM12 colon): 19.4 µM
- GI50 (T-47D breast): 3.94 µM
- TGI (T-47D breast): 49.2 µM
- GI50 (NCI-H23 lung): 8.65 µM
- TGI (NCI-H23 lung): 21.3 µM

From PubChem BioAssay (NCI)
